Laboratory results published in patent publication US8349768B2, “Use of abscisic acid to alter sensory characteristics of white grapes and wine” (Valent BioSciences Corporation, priority 2007, dated 2013).

Columns and labels:
grapevines = conditions: application of S-ABA; During and Broquedis 1980; cited from earlier work
[1] = test system: white wine grape cultivar 'Chardonnay'; assay: Chardonnay grape tasting panel; type: in vivo, grapevine; conditions: Chardonnay grapes sampled at preharvest and at harvest; panel of two tasters; 200 ppm S-ABA
Protocol: (§1) A large block unreplicated field experiment was conducted on the white wine grape cultivar ‘Chardonnay’ in the Riverina growing region of New South Wales, Australia to test the effect of S-ABA on white grapes. Three treatments were tested: Untreated control, 200 ppm S-ABA applied at pre-veraison and 200 ppm S-ABA applied at veraison. Each block consisted of 4 rows and covered 0.4 Ha in size. S-ABA was applied using a commercial airblast sprayer. S-ABA was applied at a concentration of 200 ppm in a volume of approximately 1000 L/Ha (approximately 100 gallons/A) in order to achieve thorough and complete coverage of the grape bunches. A 20% S-ABA soluble granule formulation was utilized in the experiment. The commercial surfactant Kendeen 20 was included at a rate of 50 ml/100 L spray. Applications of S-ABA were made at pre-veraison (approximately 3 weeks before veraison or berry softening) and veraison. Irrigation, summer pruning, insecticide/fungicides and other routine vine management practices were the same as those practiced commercially by the grower in the adjacent parts of the vineyard.

[2] = test system: white wine grape cultivar 'Semillon'; assay: Semillon grape tasting panel; type: in vivo, grapevine; conditions: Semillon grapes sampled at preharvest and at harvest; panel of three tasters; 200 ppm S-ABA
Protocol: A replicated field experiment was conducted on the white wine grape cultivar ‘Semillon’ in the Riverina growing region of New South Wales, Australia to test the effect of S-ABA on white grapes. Four treatments were tested: Untreated control, 200 ppm S-ABA applied at pre-veraison, 200 ppm S-ABA applied at veraison, and 200 ppm S-ABA applied during the post-veraison period (berry sugar level of 10-11 Baume (18-20° brix)). There were 4 replicates of each treatment and the experiment was laid out in a randomized complete block (RCB) design. S-ABA was applied using a commercial airblast sprayer. S-ABA was applied at a concentration of 200 ppm in a volume of approximately 2000 L/Ha (approximately 200 gallons/A) in order to achieve thorough and complete coverage of the grape bunches. A 20% S-ABA soluble granule formulation was utilized in the experiment. The commercial surfactant Agral was included at a rate of 10 ml/100 L spray. Applications of S-ABA were made at pre-veraison (approximately 3 weeks before veraison or berry softening), veraison, and during the post-veraison period when the grape sugar levels had reached approximately 10-11 Baume (18-20° brix). The 10-11 Baume application took place 36 days after the veraison application. […]

[3] = test system: white wine grape cultivar 'Chardonnay'; assay: Chardonnay wine sensory analysis: straight judgment of difference test; type: in vivo, grapevine; conditions: All Chardonnay wines from the S-ABA treatments; ten tasters; with statistical significance
Protocol: as §1
(§2) Wine was produced from the grapes from each of the S-ABA treatments. […]
(§3) Sensory analysis was conducted on the S-ABA-treated and untreated wines. A panel consisting of ten experienced wine tasters evaluated the wines for aroma and taste. […]

[4] = test system: white wine grape cultivar 'Semillon'; assay: Semillon wine chemical (spectral) analysis; type: in vivo, grapevine
Protocol: (§4) A replicated field experiment was conducted on the white wine grape cultivar ‘Semillon’ in the Riverina growing region of New South Wales, Australia to test the effect of S-ABA on white grapes. Four treatments were tested: Untreated control, 200 ppm S-ABA applied at pre-veraison, 200 ppm S-ABA applied at veraison, and 200 ppm S-ABA applied during the post-veraison period (berry sugar level of 10-11 Baume (18-20° brix)). There were 4 replicates of each treatment and the experiment was laid out in a randomized complete block (RCB) design. S-ABA was applied using a commercial airblast sprayer. S-ABA was applied at a concentration of 200 ppm in a volume of approximately 2000 L/Ha (approximately 200 gallons/A) in order to achieve thorough and complete coverage of the grape bunches. A 20% S-ABA soluble granule formulation was utilized in the experiment. The commercial surfactant Agral was included at a rate of 10 ml/100 L spray. Applications of S-ABA were made at pre-veraison (approximately 3 weeks before veraison or berry softening), veraison, and during the post-veraison period when the grape sugar levels had reached approximately 10-11 Baume (18-20° brix). The 10-11 Baume application took place 36 days after the veraison application. Irrigation, summer pruning, insecticide/fungicides and other routine vine management practices were the same as those practiced commercially by the grower in the adjacent parts of the vineyard.
(§5) Wine was produced from the grapes from each of the S-ABA treatments. Small lot primary fermentations were conducted and the wine was bottled. Triplicate ferments of each treatment were conducted using approximately 3×50 kg of grapes. Each replicate ferment contained an equal volume of grapes from each of the four field replicates. Grapes were harvested from the central panels within each replicate. All grapes were harvested from both sides of the vines from these panels. The grapes were transferred immediately to the experimental winery, protected from heat and treated with sulfur dioxide. A standard winemaking protocol used for small-scale replicated primary fermentations was followed. Following the fermentation, the wine was bottled.
(§6) Chemical analyses were conducted on the wines prepared from the various treatments in the field experiment using industry standard analytical methods.

grapes = conditions: S-ABA application on grapes; Han et al. 1996; cited from earlier work
[5] = test system: white wine grape cultivar 'Chardonnay'; assay: Chardonnay field experiment: spectral analysis of berries at harvest; type: in vivo, grapevine; conditions: for A280 / A320 / A420 / Est. of brown pigments / Total Flavonoids / Total Hydroxycinnamates / Total Phenolics: Chardonnay berries at harvest
Protocol: as §1
(§7) Grapes samples were harvested at the time of commercial harvest for berry analysis and table wine production. For the standard maturity berry measurements, 12-20 bunches per replicate were sampled. Bunches were randomly selected from both sides of the vines. Samples were analyzed using standard analytical methods used by the grape and wine industry. For additional spectral analyses, samples of 100 berries from each treatment were collected prior to winemaking.

red grapes = conditions: exogenous application to red grapes prior to harvest; literature; cited from earlier work
[6] = test system: white wine grape cultivar 'Chardonnay'; assay: Chardonnay field experiment: standard maturity berry measurements at harvest; type: in vivo, grapevine; conditions: for Baume: Chardonnay berries at harvest (26 days after veraison); for Titratable Acidity / pH: Chardonnay berries at harvest
Protocol: as §1, §7

[7] = test system: white wine grape cultivar 'Semillon'; assay: Semillon wine descriptive analysis; type: in vivo, grapevine; conditions: for Aroma (descriptor): untreated: low aroma, some fruit; for Color (descriptor): untreated: pale straw
Protocol: as §4, §5
(§8) Sensory analysis was conducted on the treated and untreated wines. A panel consisting of nine experienced wine tasters evaluated the wines for aroma and taste. The wine grape cultivar was identified, but no information regarding the field treatments was identified to the tasters.
A wine descriptive analysis was also conducted for the Semillon wines prepared from the untreated control and from the S-ABA treatments. The panels provided descriptive terms to characterize the aroma, taste and color profile of each wine. The methodology used was based on survey-style collection with a thematic analysis to pull out the most consistent terms (Table 5).

[8] = test system: white wine grape cultivar 'Chardonnay'; assay: Chardonnay wine descriptive analysis; type: in vivo, grapevine
Protocol: as §1, §2, §3

[9] = test system: white wine grape cultivar 'Semillon'; assay: Semillon field experiment: standard maturity berry measurements at harvest; type: in vivo, grapevine; conditions: for Baume: Semillon berries at harvest (54 days after veraison); for Titratable Acidity / pH: Semillon berries at harvest
Protocol: as §4
as §7, with “Grape” for “Grapes”

[10] = test system: white wine grape cultivar 'Semillon'; assay: Semillon field experiment: spectral analysis of berries at harvest; type: in vivo, grapevine
Protocol: as §4
as §7, with “Grape” for “Grapes”

[11] = test system: white wine grape cultivar 'Chardonnay'; assay: Chardonnay wine chemical (spectral) analysis; type: in vivo, grapevine
Protocol: as §1
Wine was produced from the grapes from each of the S-ABA treatments. Small lot primary fermentations were conducted and the wine was bottled. […] ferments of each treatment were conducted using approximately 3×50 kg of grapes. Each replicate ferment contained an equal volume of grapes from entire panels of vines. All grapes were harvest from both sides of the vines from these panels. The grapes were transferred immediately to the experimental winery, protected from heat and treated with sulfur dioxide. A standard winemaking protocol used for small-scale replicated primary fermentations was followed. Following the fermentation, the wine was bottled.
as §6

[12] = test system: white wine grape cultivar 'Semillon'; assay: Semillon wine sensory analysis: straight judgment of difference test; type: in vivo, grapevine; conditions: for Statistically significant (difference from reference wine) / Number of tasters who selected as different from reference wine/Total number of tasters: Semillon wine; for Number of tasters who selected as different from reference wine/Total number of tasters: reference = untreated control
Protocol: as §4, §5, §8
A straight judgment of difference test was conducted to determine if the wines were different from the untreated control. […] Therefore, these wines can be considered to be different from the reference wine, thereby implying a treatment effect.

[13] = 200 ppm S-ABA applied at pre-veraison
[14] = 200 ppm S-ABA applied post-veraison (11 Baume)
[15] = spectral analysis, 200 ppm S-ABA treatments
[16] = 200 ppm S-ABA applied at veraison
[17] = 200 ppm S-ABA foliar spray applied at pre-veraison
[18] = 200 ppm S-ABA foliar spray applied at veraison
[19] = Semillon berries at harvest, 200 ppm S-ABA applied at pre-veraison
[20] = Semillon berries at harvest, 200 ppm S-ABA applied at veraison
[21] = Semillon berries at harvest, 200 ppm S-ABA applied post-veraison (11 Baume)

(S)-5-(1-hydroxy-2,6,6,-trimethyl-4-oxo-2-cyclohexen-1-yl)-3-methyl-(2Z,4E)-pentadienoic acid [S-ABA]
Stomatal resistance in grapevines (grapevines): increase stomatal resistance
Flavor of S-ABA treated grapes vs untreated grapes [1]: notable differences in flavor
Flavor of S-ABA treated grapes vs untreated grapes [2]: notable differences in flavor
Judgment of difference from the reference wine (untreated control) [3]: judged to be different from the reference wine
Total Hydroxycinnamates [4, 13]: 0.8700 a.u.
Total Hydroxycinnamates ([4]; 200 ppm S-ABA applied at veraison, untreated control vs. veraison P = 0.0604): 0.9033 a.u.
Total Hydroxycinnamates [4, 14]: 0.8267 a.u.
Levels of hydroxycinnamates in S-ABA treated wines [4, 15]: higher levels of hydroxycinnamates
Berry and cluster weight (grapes): increase berry and cluster weight
A280 [5, 13]: 17.37
A320 [5, 13]: 3.53
A420 [5, 13]: 0.530
Est. of brown pigments [5, 13]: 0.530 a.u.
Total Flavonoids [5, 13]: 11.96 a.u.
Total Hydroxycinnamates [5, 13]: 2.13 a.u.
Total Phenolics [5, 13]: 13.37 a.u.
A280 [5, 16]: 14.07
A320 [5, 16]: 3.38
A420 [5, 16]: 0.567
Est. of brown pigments [5, 16]: 0.567 a.u.
Total Flavonoids [5, 16]: 8.76 a.u.
Total Hydroxycinnamates [5, 16]: 1.98 a.u.
Total Phenolics [5, 16]: 10.07 a.u.
Total phenolics, hydroxycinnamates, total flavonoids and estimate of brown pigments (chemical analysis) ([5]; Chardonnay berries, 200 ppm S-ABA treatments vs untreated): some differences
Accumulation of anthocyanins and red color of grape berry skins (red grapes): increase the accumulation of anthocyanins and increase the red color
Baume [6, 17]: 14.3
Baume [6, 18]: 14.4
Titratable Acidity [6, 13]: 6.2
pH [6, 13]: 3.73
Titratable Acidity [6, 16]: 6.9
pH [6, 16]: 3.60
Effect on berry sugar content (Baume), pH, titratable acidity or bunch weight ([6]; Chardonnay, 200 ppm S-ABA treatments): did not consistently affect
Taste (descriptor) ([7]; 200 ppm S-ABA applied at pre-veraison, untreated: citrus, acidic): Much more acidic
Aroma (descriptor) [7, 13]: More intense fruit
Color (descriptor) [7, 13]: Pale straw
Aroma (descriptor) [7, 16]: More intense fruit
Aroma (descriptor) [7, 14]: More intense fruit
Color (descriptor) [7, 14]: Pale straw
Effect on fruit aroma and acidic taste of the wine ([7]; 200 ppm S-ABA treatments): increased or intensified
Descriptive characteristics compared to the Untreated [8, 13]: More intense aroma, slightly more mineral and bitterness
Effect on fruit aroma and acidic taste in the wine ([8]; 200 ppm S-ABA treatments): increased or intensified
Baume [9, 17]: 11.6
Baume [9, 18]: 11.7
Baume ([9]; 200 ppm S-ABA foliar spray applied post-veraison (11 Baume)): 11.6
Titratable Acidity [9, 13]: 4.5
pH [9, 13]: 3.57
Titratable Acidity [9, 16]: 4.5
pH [9, 16]: 3.56
Titratable Acidity [9, 14]: 4.0
pH [9, 14]: 3.61
Effect on berry sugar content (Baume), pH, titratable acidity or bunch weight ([9]; Semillon, 200 ppm S-ABA treatments): did not consistently affect
A280 [10, 19]: 6.62
A320 [10, 19]: 2.642
A420 [10, 19]: 0.465
Est. of brown pigments [10, 19]: 0.47 a.u.
Total Flavonoids [10, 19]: 1.80 a.u.
Total Hydroxycinnamates [10, 19]: 1.24 a.u.
Total Phenolics [10, 19]: 2.62 a.u.
A280 [10, 20]: 6.85
A320 [10, 20]: 2.713
A420 [10, 20]: 0.471
Est. of brown pigments [10, 20]: 0.47 a.u.
Total Flavonoids [10, 20]: 1.98 a.u.
Total Hydroxycinnamates [10, 20]: 1.31 a.u.
Total Phenolics [10, 20]: 2.85 a.u.
A280 [10, 21]: 6.47
A320 [10, 21]: 2.59
A420 [10, 21]: 0.461
Est. of brown pigments [10, 21]: 0.46 a.u.
Total Flavonoids [10, 21]: 1.68 a.u.
Total Hydroxycinnamates [10, 21]: 1.19 a.u.
Total Phenolics [10, 21]: 2.47 a.u.
Effect on phenolic composition of the berries ([10]; Semillon berries at harvest, 200 ppm S-ABA treatments): tended to increase
Total phenolics, hydroxycinnamates, total flavonoids and estimated brown pigments (chemical analysis) ([10]; Semillon berries, 200 ppm S-ABA treatments vs untreated): some differences
Total Hydroxycinnamates [11, 13]: 3.14 a.u
Total Phenolics [11, 13]: 2.55 a.u
Total Hydroxycinnamates [11, 16]: 3.19 a.u
Total Phenolics [11, 16]: 2.97 a.u
Balance of hydroxycinnamates and phenolics in S-ABA treated wines [11, 15]: different balance of hydroxycinnamates and phenolics
Judgment of difference from the reference wine (untreated control) ([12]; All Semillon wines from the S-ABA treatments, nine tasters, with statistical significance): judged to be different from the reference wine
Statistically significant (difference from reference wine) [12, 13]: Yes
Number of tasters who selected as different from reference wine/Total number of tasters [12, 13]: 8/9
Statistically significant (difference from reference wine) [12, 16]: Yes
Number of tasters who selected as different from reference wine/Total number of tasters [12, 16]: 8/9
Statistically significant (difference from reference wine) [12, 14]: Yes
Number of tasters who selected as different from reference wine/Total number of tasters [12, 14]: 8/9
